Values joined by “and” are separate entries in the source; they are usually repeats but may differ in a detail not shown here. Equal entries are not always repeated.
Assays:
[1] = target: DRD2 (D2 long receptor) (Homo sapiens, UniProt P14416); experiment: Gαi/o-mediated cAMP inhibition (GloSensor split-luciferase cAMP reporter), HEK293T; assay type: cell-based; conditions: DRD2; antagonist, Gαi/o-mediated cAMP inhibition; read-out: EC50 ± SEM (antagonist);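 note: compounds applied 15 min at room temperature, then luciferin plus 400 nM isoproterenol to raise cAMP through endogenous β2-adrenergic receptors, luminescence read 15 min later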
Chain of DRD2 (D2 long receptor) (P14416 whole entry): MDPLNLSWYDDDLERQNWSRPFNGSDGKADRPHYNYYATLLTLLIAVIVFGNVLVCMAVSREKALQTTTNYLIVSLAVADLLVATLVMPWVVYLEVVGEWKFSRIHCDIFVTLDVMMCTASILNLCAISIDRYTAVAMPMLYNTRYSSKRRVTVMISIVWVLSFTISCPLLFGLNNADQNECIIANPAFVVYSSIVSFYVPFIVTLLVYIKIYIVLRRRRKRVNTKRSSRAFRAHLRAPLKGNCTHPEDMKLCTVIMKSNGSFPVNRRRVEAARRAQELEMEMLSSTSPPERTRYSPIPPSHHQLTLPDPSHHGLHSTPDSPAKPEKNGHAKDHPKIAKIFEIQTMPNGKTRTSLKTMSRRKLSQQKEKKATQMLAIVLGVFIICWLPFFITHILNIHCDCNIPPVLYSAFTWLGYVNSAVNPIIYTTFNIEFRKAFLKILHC

[2] = target: DRD3 wild-type (Homo sapiens, UniProt P35462); experiment: Radioligand competition binding, [3H]-N-methylspiperone; conditions: DRD3 wild-type; read-out: pKi ± SEM (converted)
Chain of DRD3 wild-type (P35462 whole entry): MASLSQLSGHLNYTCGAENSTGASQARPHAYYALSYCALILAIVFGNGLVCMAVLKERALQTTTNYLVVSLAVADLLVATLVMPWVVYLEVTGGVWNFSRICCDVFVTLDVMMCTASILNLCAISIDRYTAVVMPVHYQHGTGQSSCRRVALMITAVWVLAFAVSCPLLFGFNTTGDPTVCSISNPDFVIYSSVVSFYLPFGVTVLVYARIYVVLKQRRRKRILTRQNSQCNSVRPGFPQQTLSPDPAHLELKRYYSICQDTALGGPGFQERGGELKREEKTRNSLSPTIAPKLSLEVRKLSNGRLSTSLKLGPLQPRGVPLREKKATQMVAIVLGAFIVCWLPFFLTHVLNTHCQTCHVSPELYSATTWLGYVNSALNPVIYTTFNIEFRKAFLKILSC

[3] = target: DRD2 (D2 long receptor) wild-type (Homo sapiens, UniProt P14416); experiment: Radioligand competition binding, [3H]-N-methylspiperone, HEK293T membranes; conditions: DRD2; [3H]-methylspiperone (0.8-1.0 nM); read-out: Ki
Chain of DRD2 (D2 long receptor) wild-type (P14416 whole entry): as the sequence (P14416 whole entry) above

[4] = target: T1, DRD4 (D4.4 variant) wild-type (Homo sapiens, UniProt P21917); experiment: Radioligand competition binding, [3H]-N-methylspiperone; conditions: DRD4; [3H]-methylspiperone (0.8-1.0 nM); read-out: Ki
T1 sequence (P21917 1-419): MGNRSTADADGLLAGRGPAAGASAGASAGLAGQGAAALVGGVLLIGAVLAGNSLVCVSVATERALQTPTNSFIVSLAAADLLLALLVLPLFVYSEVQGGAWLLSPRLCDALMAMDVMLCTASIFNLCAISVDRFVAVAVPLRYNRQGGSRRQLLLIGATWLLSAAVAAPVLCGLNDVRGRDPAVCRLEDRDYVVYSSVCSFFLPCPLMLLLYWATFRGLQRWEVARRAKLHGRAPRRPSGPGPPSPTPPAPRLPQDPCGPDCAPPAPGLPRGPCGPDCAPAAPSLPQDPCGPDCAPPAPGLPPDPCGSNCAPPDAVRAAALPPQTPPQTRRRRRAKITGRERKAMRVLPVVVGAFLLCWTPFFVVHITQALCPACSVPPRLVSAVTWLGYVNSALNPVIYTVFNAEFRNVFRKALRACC

[5] = target: DRD5 (Homo sapiens, UniProt P21918); experiment: β-arrestin2 recruitment (Tango); assay type: cell-based; conditions: Fig_S10e, single replicates
Chain of DRD5 (P21918 whole entry): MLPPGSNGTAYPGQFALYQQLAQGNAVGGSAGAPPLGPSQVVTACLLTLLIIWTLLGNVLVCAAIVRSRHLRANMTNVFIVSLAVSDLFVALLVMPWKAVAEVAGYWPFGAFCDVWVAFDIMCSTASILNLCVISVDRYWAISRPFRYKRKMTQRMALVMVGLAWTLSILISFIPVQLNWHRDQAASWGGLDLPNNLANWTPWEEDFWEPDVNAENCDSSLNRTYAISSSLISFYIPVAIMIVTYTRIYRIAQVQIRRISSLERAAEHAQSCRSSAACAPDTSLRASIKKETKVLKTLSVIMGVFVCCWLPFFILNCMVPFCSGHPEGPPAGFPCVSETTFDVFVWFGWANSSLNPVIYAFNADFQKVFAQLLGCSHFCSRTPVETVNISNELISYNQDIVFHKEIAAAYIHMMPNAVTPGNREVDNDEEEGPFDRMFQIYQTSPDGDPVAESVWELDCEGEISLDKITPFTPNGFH

[6] = target: DRD1 (Homo sapiens, UniProt P21728); experiment: β-arrestin2 recruitment (Tango); assay type: cell-based; conditions: agonist mode
Chain of DRD1 (P21728 whole entry): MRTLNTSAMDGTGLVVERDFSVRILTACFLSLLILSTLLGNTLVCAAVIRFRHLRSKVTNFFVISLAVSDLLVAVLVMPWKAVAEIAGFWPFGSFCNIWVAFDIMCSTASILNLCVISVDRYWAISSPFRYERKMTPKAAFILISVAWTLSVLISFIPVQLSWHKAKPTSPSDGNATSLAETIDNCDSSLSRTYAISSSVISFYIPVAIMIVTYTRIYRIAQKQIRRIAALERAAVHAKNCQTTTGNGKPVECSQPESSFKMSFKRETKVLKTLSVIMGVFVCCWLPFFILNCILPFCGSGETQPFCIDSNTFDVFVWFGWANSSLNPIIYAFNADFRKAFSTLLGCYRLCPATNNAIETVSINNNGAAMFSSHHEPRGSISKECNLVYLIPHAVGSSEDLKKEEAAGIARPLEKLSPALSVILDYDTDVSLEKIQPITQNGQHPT

[7] = target: T2, 5HT6 (Homo sapiens, UniProt P50406); experiment: β-arrestin2 recruitment (Tango); assay type: cell-based; conditions: Fig_S10p, agonist mode
T2 construct: expressed in transfected cells; host or cells: HTLA cells expressing TEV-fused β-arrestin2
T2 sequence (P50406 whole entry, the tested form may be a part): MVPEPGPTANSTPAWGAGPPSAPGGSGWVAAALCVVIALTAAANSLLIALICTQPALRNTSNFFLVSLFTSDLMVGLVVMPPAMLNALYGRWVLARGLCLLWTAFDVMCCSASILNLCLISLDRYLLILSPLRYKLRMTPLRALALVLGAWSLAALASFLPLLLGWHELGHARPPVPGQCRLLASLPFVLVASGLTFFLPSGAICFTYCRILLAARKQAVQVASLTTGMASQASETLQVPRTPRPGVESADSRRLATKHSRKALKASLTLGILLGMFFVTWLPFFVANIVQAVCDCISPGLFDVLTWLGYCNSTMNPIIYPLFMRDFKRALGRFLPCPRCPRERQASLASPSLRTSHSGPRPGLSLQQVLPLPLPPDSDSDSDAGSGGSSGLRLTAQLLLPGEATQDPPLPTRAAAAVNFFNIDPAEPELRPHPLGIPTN

[8] = target: T3, 5HT7A (Homo sapiens, UniProt P34969); experiment: β-arrestin2 recruitment (Tango); assay type: cell-based; conditions: Fig_S10q, agonist mode
T3 construct: expressed in transfected cells; host or cells: HTLA cells expressing TEV-fused β-arrestin2
T3 sequence (P34969 1-445 isoform P34969-2): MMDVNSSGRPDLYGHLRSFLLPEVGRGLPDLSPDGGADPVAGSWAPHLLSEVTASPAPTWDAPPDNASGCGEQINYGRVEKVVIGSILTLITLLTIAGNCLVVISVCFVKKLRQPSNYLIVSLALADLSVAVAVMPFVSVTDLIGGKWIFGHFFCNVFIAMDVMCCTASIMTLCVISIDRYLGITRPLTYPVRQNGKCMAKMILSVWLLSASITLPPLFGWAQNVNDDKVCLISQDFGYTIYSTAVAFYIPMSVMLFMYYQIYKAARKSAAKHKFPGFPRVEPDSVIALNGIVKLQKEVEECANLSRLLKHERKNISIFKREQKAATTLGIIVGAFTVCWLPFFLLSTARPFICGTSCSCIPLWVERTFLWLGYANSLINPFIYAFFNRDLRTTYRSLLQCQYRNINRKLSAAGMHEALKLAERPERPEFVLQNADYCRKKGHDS

## CCCCN(C)C(C)C(=O)Nc1cc([N+](=O)[O-])ccc1OC (stereo not drawn) [O9LE9]
[1]
  EC50: 3.55 ± 0.295 µM
[2]
  Ki: 0.214 µM
[3]
  Ki: 3.8 µM
[4]
  Ki: > 10 µM

## Oc1ccc2c(c1O)Oc1cccc3c1C2CNC3 (stereo not drawn) [dinoxyline]
[5]; Log[Drug] -6.52
  β-arrestin2 recruitment response, agonist mode (normalized): 50.9959 and 44.5818 and 81.7753 and 73.11 and 53.8362
[5]; Log[Drug] -7
  β-arrestin2 recruitment response, agonist mode (normalized): 44.4286 and 33.2805 and 57.3924 and 47.0403 and 55.7358 and 61.3062 and 41.0525 and 43.6565
[5]; Log[Drug] -7.52
  β-arrestin2 recruitment response, agonist mode (normalized): 33.6662 and 25.4134 and 56.8006 and 39.9881 and 23.8046 and 44.1458 and 17.6483 and 11.4811
[5]; Log[Drug] -8
  β-arrestin2 recruitment response, agonist mode (normalized): 7.481 and 4.412 and 28.4866 and 15.182 and 15.3449 and 6.879 and 1.575 and 2.947
[5]; Log[Drug] -8.52
  β-arrestin2 recruitment response, agonist mode (normalized): 7.423 and 8.3056 and 10.7658 and 9.092 and 10.1938 and 2.126 and 2.041 and 8.64
[5]; Log[Drug] -9
  β-arrestin2 recruitment response, agonist mode (normalized): 0.5231 and -1.384 and 1.379 and 3.9644 and 2.988 and 7.407 and -1.292 and -1.934 and 0.3332
[5]; Log[Drug] -9.52
  β-arrestin2 recruitment response, agonist mode (normalized): 0.9986 and 0.1427 and 0.1268 and 2.609 and 1.523 and 1.227 and -2.233 and -1.075 and -0.4405
[5]; Log[Drug] -10
  β-arrestin2 recruitment response, agonist mode (normalized): -2.61 and -1.543 and -0.2906 and 1.406 and 1.213 and 1.593 and -1.565 and -1.034 and 0.3624
[5]; Log[Drug] -10.52
  β-arrestin2 recruitment response, agonist mode (normalized): 3.973 and -1.363 and 0.9616 and 3.254 and 1.908 and 2.385 and -0.2872 and 0.4781 and -0.9479
[5]; Log[Drug] -11
  β-arrestin2 recruitment response, agonist mode (normalized): -1.141 and 0.9563 and 6.05 and 0.4043 and -0.1448 and 1 and -1.291 and -1.255 and 0.5855
[5]; Log[Drug] -11.52
  β-arrestin2 recruitment response, agonist mode (normalized): 0.7872 and 1.828 and -1.791 and 1.074 and 2.305 and 1.525 and -1.001 and -2.087 and -0.1993
[5]; Log[Drug] -12
  β-arrestin2 recruitment response, agonist mode (normalized): -1.5322 and -0.4861 and -0.05283 and -0.02136 and -0.01028 and 2.843 and -2.166 and -0.9521 and 0.6036
[6]; Log[Drug] -6.52
  Fig_S10d concentration-response source data, compound alone (replicates): 10.0073
[6]; Log[Drug] -7
  Fig_S10d concentration-response source data, compound alone (replicates): 4.307 and 1.205 and 1.227 and 4.484 and 2.979 and 2.557 and 2.04 and -0.1301 and 1.092
[6]; Log[Drug] -7.52
  Fig_S10d concentration-response source data, compound alone (replicates): 1.579 and 3.303 and 0.5491 and 3.089 and 1.082 and 1.378 and -0.7612 and -0.8315 and -0.809
[6]; Log[Drug] -8
  Fig_S10d concentration-response source data, compound alone (replicates): 1.257 and 1.231 and 1.566 and 0.913 and 0.3538 and 0.1991 and -0.676 and -1.057 and 0.2893
[6]; Log[Drug] -8.52
  Fig_S10d concentration-response source data, compound alone (replicates): 0.2231 and 2.08 and 8.446 and 0.2359 and 0.07888 and 0.01718 and -0.4841 and -1.204 and -0.2743
[6]; Log[Drug] -9
  Fig_S10d concentration-response source data, compound alone (replicates): 0.9179 and 0.03861 and 0.7078 and 0.082 and -0.04373 and 0.0164 and -1.424 and -1.237 and -0.4972
[6]; Log[Drug] -9.52
  Fig_S10d concentration-response source data, compound alone (replicates): 0.9179 and 1.428 and 0.9008 and 0.3038 and -0.1367 and -0.264 and -0.706 and -1.205 and -0.04775
[6]; Log[Drug] -10
  Fig_S10d concentration-response source data, compound alone (replicates): -0.2788 and -0.1244 and 1.737 and -0.3538 and -0.2647 and 0.1437 and -1.4279 and -0.8642 and -0.7996
[6]; Log[Drug] -10.52
  Fig_S10d concentration-response source data, compound alone (replicates): -0.2788 and 0.2273 and 1.767 and 0.02109 and 0.9895 and -0.1132 and 0.1507 and -0.4242 and -0.1601
[6]; Log[Drug] -11
  Fig_S10d concentration-response source data, compound alone (replicates): 0.5834 and 0.2231 and 0.5491 and -0.5092 and -0.2671 and 0.4842 and -1.071 and -0.647 and 0.1395
[6]; Log[Drug] -11.52
  Fig_S10d concentration-response source data, compound alone (replicates): -0.1115 and 1.072 and 4.68 and 0.05545 and 0.239 and 0.3608 and 3.618 and -0.7331 and -0.985
[6]; Log[Drug] -12
  Fig_S10d concentration-response source data, compound alone (replicates): -0.2702 and -0.1115 and 0.3903 and -0.474 and -0.4764 and -0.3218 and 3.0206 and -0.9897 and -0.8633

## CC[C@@H](CO)NC(=O)[C@@H]1C=C2c3cccc4[nH]cc(c34)C[C@H]2N(C)C1 [methylergonovine]
[7]; Log[Drug] -7.52
  β-arrestin2 recruitment response, replicate points of concentration-response curve: 58.3654 and 42.8218 and 40.7735 and 42.4938 and 47.6018 and 32.15
[7]; Log[Drug] -8
  β-arrestin2 recruitment response, replicate points of concentration-response curve: 38.2178 and 17.1349 and 29.2946 and 27.8088 and 40.0294 and 64.9029 and 31.7107 and 61.5077 and 39.0249 and 30.4136
[7]; Log[Drug] -8.52
  β-arrestin2 recruitment response, replicate points of concentration-response curve: 30.1013 and 10.6993 and 18.1498 and 24.4245 and 28.031 and 15.5168 and 0.8374 and 22.4349 and 11.5027 and 21.7874 and 10.2907 and 27.3285
[7]; Log[Drug] -9
  β-arrestin2 recruitment response, replicate points of concentration-response curve: 20.3729 and 3.9604 and 2.141 and 7.952 and 0.7859 and 8.081 and -4.077 and -4.555 and -0.4693 and 35.6884 and 0.3477 and 9.366
[7]; Log[Drug] -9.52
  β-arrestin2 recruitment response, replicate points of concentration-response curve: 14.1022 and -2.488 and 4.171 and 24.8948 and 4.829 and 2.461 and 0.773 and -7.38 and -5.613 and 10.7938 and 2.907 and -1.524
[7]; Log[Drug] -10
  β-arrestin2 recruitment response, replicate points of concentration-response curve: 15.029 and -5.149 and -2.667 and -0.08663 and 7.1866 and 6.531 and -8.448 and -13.3063 and 14.3186 and 3.129 and -2.7225 and -5.682
[7]; Log[Drug] -10.52
  β-arrestin2 recruitment response, replicate points of concentration-response curve: 3.317 and 8.465 and -0.4579 and 0.09901 and 5.631 and 26.1232 and -3.267 and -10.7113 and 5.834 and 27.1732 and 9.063 and 0.5697
[7]; Log[Drug] -11
  β-arrestin2 recruitment response, replicate points of concentration-response curve: 5.777 and -4.208 and -3.1745 and 6.856 and 4.8832 and -1.2628 and -4.113 and -7.095 and -5.0704 and 3.773 and -2.7003 and -4.128
[7]; Log[Drug] -11.52
  β-arrestin2 recruitment response, replicate points of concentration-response curve: -0.7317 and 4.554 and -0.9344 and -1.6151 and 0.5528 and 0.3631 and 17.5761 and 19.5362 and 55.6731 and -3.662 and -4.713 and -3.3
[8]; Log[Drug] -8.52
  β-arrestin2 recruitment response, replicate points of concentration-response curve: 57.2072 and 62.1985 and 0.2034 and 43.345 and 17.0227 and 39.6469 and 24.6535 and -5.393 and 3.158
[8]; Log[Drug] -9
  β-arrestin2 recruitment response, replicate points of concentration-response curve: 28.3493 and 32.0982 and 22.9584 and 37.3511 and 39.7632 and 14.7559 and 9.616 and 19.0912 and 1.923
[8]; Log[Drug] -9.52
  β-arrestin2 recruitment response, replicate points of concentration-response curve: -6.008 and 0.109 and 1.017 and 1.4676 and 14.0366 and 7.578 and 5.289 and -11.615 and 5.562
[8]; Log[Drug] -10
  β-arrestin2 recruitment response, replicate points of concentration-response curve: -3.669 and 16.1145 and 7.694 and 15.3008 and -0.2833 and 45.4083 and 32.224 and 8.8715 and 2.743
[8]; Log[Drug] -10.52
  β-arrestin2 recruitment response, replicate points of concentration-response curve: 10.5565 and 33.0718 and 2.739 and 13.5571 and -3.967 and -24.3897 and -1.32 and -17.1773 and 11.1342
[8]; Log[Drug] -11
  β-arrestin2 recruitment response, replicate points of concentration-response curve: -4.984 and -18.2941 and -15.3444 and 8.733 and -19.8489 and 29.4754 and -10.9833 and -5.732 and 20.4393
[8]; Log[Drug] -11.52
  β-arrestin2 recruitment response, replicate points of concentration-response curve: -6.553 and -20.7643 and -12.3583 and 13.7605 and -14.4653 and -10.5493 and -19.7417 and -12.1995 and -5.987
[8]; Log[Drug] -12
  β-arrestin2 recruitment response, replicate points of concentration-response curve: 42.2988 and -7.374 and -17.7056 and -12.5618 and -4.708 and 17.4441 and -2.395 and 25.3135 and 14.3302

Reference: paper PMC7044277 (Nature Communications, 2020)
